ChEMBL document CHEMBL5385882, “Rational design and appraisal of selective Cdc2-Like kinase 1 (Clk1) inhibitors as novel autophagy inducers for the treatment of acute liver injury (ALI)” (Eur J Med Chem, 2023)
The source made the active and inactive calls. The calls are words filed in the database; no cut-off is given here.

What was measured:
[1] = molecular target: T1, Dual specificity protein kinase CLK1 (Homo sapiens, UniProt P49759); test: Inhibition of human 130-end recombinant CLK1 assessed as remaining activity using ERMRPRKRQGSVR as substrate by [gamma-32P]ATP binding based scintillation counting based analysis
Target sequence in this assay (P49759 whole entry): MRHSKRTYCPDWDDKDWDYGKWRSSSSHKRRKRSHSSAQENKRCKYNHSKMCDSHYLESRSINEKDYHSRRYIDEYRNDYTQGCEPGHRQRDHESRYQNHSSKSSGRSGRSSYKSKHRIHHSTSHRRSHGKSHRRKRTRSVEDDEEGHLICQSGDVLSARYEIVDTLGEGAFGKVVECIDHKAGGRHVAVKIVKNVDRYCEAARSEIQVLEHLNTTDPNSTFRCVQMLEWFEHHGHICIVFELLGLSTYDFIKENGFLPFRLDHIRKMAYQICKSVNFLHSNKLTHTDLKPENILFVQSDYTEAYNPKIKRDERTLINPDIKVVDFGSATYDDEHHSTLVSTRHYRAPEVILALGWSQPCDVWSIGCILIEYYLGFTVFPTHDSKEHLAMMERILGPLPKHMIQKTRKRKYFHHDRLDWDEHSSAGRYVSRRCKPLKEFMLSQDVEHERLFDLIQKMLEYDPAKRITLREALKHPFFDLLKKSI

[2] = Metabolic stability in human liver microsomes assessed as clearance at 10 uM incubated for 5 mins in the presence of NADPH-generating system by LC-MS/MS analysis; format: ADME, Microsome
Homo sapiens = organism: Homo sapiens; test: Selectivity index, ratio of IC50 for inhibition of human full length recombinant DYRK1A to IC50 for inhibition of human 130-end recombinant CLK1
[3] = molecular target: T2, Dual specificity tyrosine-phosphorylation-regulated kinase 1A (Homo sapiens, UniProt Q13627); test: Inhibition of human full length recombinant DYRK1A assessed as remaining activity using RRRFRPASPLRGPP as substrate at 100 nM by [gamma-32P]ATP binding based scintillation counting based analysis relative to control
[4] = molecular target: T1, Dual specificity protein kinase CLK1; test: Inhibition of human 130-end recombinant CLK1 assessed as remaining activity using ERMRPRKRQGSVR as substrate at 100 nM by [gamma-32P]ATP binding based scintillation counting based analysis relative to control
Target sequence in this assay (P49759 whole entry, looked up): as the sequence (P49759 whole entry) above

[5] = Metabolic stability in human liver microsomes assessed as half life at 10 uM incubated for 5 mins in the presence of NADPH-generating system by LC-MS/MS analysis; format: ADME, Microsome
[6] = molecular target: T2, Dual specificity tyrosine-phosphorylation-regulated kinase 1A; test: Inhibition of human full length recombinant DYRK1A assessed as remaining activity using RRRFRPASPLRGPP as substrate by [gamma-32P]ATP binding based scintillation counting based analysis
[7] = molecular target: Dual specificity protein kinase CLK1 (Mus musculus) (UniProt P22518); test: Inhibition of Clk1 in mouse BNL CL.2 cells assessed as redistribution of serine/arginine (SR) proteins from nucleoplasmic (active form) to nuclear speckles (storage form) at 10 uM incubated for 24 hrs by immunofluorescence assay; format: cell-based
Sequence of Dual specificity protein kinase CLK1 (Mus musculus) (P22518 whole entry, looked up): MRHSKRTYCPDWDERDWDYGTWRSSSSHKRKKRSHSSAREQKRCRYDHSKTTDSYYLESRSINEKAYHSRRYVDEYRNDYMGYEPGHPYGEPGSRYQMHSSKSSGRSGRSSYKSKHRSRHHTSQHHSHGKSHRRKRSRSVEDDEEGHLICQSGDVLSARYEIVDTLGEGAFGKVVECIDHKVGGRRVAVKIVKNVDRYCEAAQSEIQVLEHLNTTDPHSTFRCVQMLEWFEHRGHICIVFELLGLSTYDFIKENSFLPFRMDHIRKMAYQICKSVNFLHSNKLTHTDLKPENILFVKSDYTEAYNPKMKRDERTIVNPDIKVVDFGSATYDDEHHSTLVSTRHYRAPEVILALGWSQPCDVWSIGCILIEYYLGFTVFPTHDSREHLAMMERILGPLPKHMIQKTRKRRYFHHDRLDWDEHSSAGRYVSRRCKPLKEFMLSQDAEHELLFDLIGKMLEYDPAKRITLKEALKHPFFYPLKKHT

IC50 [1] [nM]	CLH [2] [mL/min/g]	Selectivity Index (Homo sapiens)	Activity [3] [%]	Activity [4] [%]	half-life at 10 µM [5] [min]	IC50 [6] [nM]	inhibition [7]	SMILES
66	< 12	60.5	92	20	> 120	3990		COc1cc(Cl)ccc1C(=O)Nc1cnc2[nH]cc(-c3cncc(F)c3)c2c1
16	88.7	82.7	81	9	32.1	1320		COc1cncc(-c2c[nH]c3ncc(NCc4cc(F)cc(F)c4)cc23)c1
13		135	85	9		1750		CN1CCN(c2ccc(CNc3cnc4[nH]cc(-c5cccnc5)c4c3)cc2)CC1
18		16	91	12		288		Fc1cc(F)cc(CNc2cnc3[nH]cc(-c4cccnc4)c3c2)c1
23		117	108	16		2390		CC(C)c1cccc(CNc2cnc3[nH]cc(-c4cccnc4)c3c2)c1
15		31.6	98	4		475		Fc1cccc(CNc2cnc3[nH]cc(-c4cccnc4)c3c2)c1
70		22.4	98	33		1560		CCN(CC)c1ccc(CNc2cnc3[nH]cc(-c4cccnc4)c3c2)cc1
34		1.3					Active	Nc1ccc(-c2cnc3[nH]cc(-c4ccc(O)cc4)c3c2)cc1
89		41	87	45		3650		O=C(Nc1cnc2[nH]cc(-c3cccnc3)c2c1)c1ccc(C(F)(F)F)c(F)c1
